The target in the assay is T1, SMARCA2 (Homo sapiens, UniProt P51531).
T1 construct: host or cells: NCI-H1299
The assay is described as follows: MSD SMARCA2 degradation in NCI-H1299 cell line. It counts as cell-based. Particulars: NCI-H1299 cells; percentage of SMARCA2 degradation after 24 hours. The procedure: Example 12. MSD SMARCA2 Degration in NCI-H1299 Cell Line
Cell Culture: Cells were cultured in exponential growth phase.
Compound Preparation and Treatment: NCI-H1299 cells were seeded into the 96-well plate at 4.0*10^4 cells per 100 ul per well. Incubate the plate in the incubator overnight. The next day, compounds were diluted to designed stock concentration by TECAN, then perform a 3 fold, 9-point dilution via transferring 15 uL compound into 30 μL DMSO using Apricot. 200 nL diluted compound from compound source plate were transferred into the 96-intermediate plate as designated by using Echo550, followed with 100 ul culture medium to make the 2× compound solution. Cell plate were changed with 80 ul of fresh culture medium and 80 ul of 2× compound solution was added into the well to achieve the final designed concentration. Cell plate was then shaken at 720 rpm for 5 min and incubated for 24 hours in the incubator.
Sample Preperation: Media was aspirated from the cultures and the plate was washed with PBS twice. […]
MSD Procedure: The MSD plate was coated with 40 ul cell lysate and incubated at 4° C. overnight. […] MSD plate was washed 3 times with 150 ul 1×TBST per well and 2× MSD reading buffer was added, 150 ul per well, and diluted from 4× with water. MSD instrument was then read.
Data Analysis: The percentage of relative level of SMARCA2 level was calculated following equation below. […]

Molecules are shown by their SMILES.

T1 sequence (P51531 whole entry): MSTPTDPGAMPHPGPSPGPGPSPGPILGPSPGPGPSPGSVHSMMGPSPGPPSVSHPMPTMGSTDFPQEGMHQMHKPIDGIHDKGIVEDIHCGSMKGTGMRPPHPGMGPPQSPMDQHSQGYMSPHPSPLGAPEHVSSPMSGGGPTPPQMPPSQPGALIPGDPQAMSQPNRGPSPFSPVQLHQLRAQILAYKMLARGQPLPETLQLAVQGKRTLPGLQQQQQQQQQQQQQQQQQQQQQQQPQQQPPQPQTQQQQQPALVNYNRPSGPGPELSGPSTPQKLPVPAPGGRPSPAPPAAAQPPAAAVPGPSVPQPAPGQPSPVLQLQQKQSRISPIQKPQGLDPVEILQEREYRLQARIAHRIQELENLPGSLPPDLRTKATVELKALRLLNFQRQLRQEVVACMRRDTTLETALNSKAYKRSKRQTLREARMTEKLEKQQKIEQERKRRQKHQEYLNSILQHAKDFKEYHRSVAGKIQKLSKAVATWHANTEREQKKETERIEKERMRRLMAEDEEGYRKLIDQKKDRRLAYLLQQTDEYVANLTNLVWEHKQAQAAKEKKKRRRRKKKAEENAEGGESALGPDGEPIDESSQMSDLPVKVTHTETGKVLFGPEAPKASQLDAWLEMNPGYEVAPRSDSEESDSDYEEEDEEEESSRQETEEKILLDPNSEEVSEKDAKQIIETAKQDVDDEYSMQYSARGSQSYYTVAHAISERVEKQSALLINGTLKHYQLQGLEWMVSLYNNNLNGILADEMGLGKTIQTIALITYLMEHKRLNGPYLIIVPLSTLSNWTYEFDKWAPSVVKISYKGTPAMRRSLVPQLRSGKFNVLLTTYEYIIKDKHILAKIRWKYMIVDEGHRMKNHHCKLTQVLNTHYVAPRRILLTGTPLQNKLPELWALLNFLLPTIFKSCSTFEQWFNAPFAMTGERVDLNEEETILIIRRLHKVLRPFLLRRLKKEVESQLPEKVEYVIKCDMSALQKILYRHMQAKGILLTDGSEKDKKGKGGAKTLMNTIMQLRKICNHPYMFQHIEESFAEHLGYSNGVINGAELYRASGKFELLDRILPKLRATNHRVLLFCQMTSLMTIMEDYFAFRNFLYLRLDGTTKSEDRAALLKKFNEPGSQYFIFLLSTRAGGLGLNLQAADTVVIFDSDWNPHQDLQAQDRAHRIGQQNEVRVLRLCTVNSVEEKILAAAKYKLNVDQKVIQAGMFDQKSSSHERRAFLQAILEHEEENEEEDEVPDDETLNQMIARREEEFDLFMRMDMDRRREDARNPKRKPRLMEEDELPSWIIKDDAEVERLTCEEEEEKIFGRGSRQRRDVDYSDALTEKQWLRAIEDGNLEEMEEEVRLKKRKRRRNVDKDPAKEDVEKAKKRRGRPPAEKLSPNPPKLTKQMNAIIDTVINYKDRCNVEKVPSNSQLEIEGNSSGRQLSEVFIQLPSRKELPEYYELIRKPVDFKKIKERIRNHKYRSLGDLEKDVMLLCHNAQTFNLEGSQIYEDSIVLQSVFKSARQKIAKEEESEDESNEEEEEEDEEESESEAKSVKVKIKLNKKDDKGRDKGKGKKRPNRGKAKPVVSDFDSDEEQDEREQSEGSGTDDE

Regarding `Nc1nnc(-c2ccccc2O)cc1-c1ccc(CN2CCN(CCCCCc3cccc4c3c3ccccc3n4C3CCC(=O)NC3=O)CC2)cc1` (centres unmarked) [I-7], the Dmax (commonly the greatest extent of degradation seen) is 70 to 90%. `Nc1nnc(-c2ccccc2O)cc1-c1ccc(CN2CCN(CCCCOCCCc3ccc4c(c3)c3ccccc3n4C3CCC(=O)NC3=O)CC2)cc1` (centres unmarked) [I-10] came in with a Dmax of 50 to 70%.

Values taken from patent US20230087825A1, “SMARCA DEGRADERS AND USES THEREOF” (Kymera Therapeutics, Inc., priority 2019, published 2023).
